Reference: patent publication US11154060B2, “Microbiocidal oxadiazole derivatives” (SYNGENTA PARTICIPATIONS AG, priority 2016, dated 2021)

Key:
[1] = system: Glomerella lagenarium (Colletotrichum lagenarium); assay: Glomerella lagenarium (Colletotrichum lagenarium) liquid culture / cucumber / preventative (anthracnose); assay type: cell-based; settings: Colletotrichum orbiculare, liquid culture in PDB, 24° C., 3-4 days after application, read-out: control of Glomerella lagenarium compared to untreated control (inhibition of growth, photometric)
Method: Mycelia fragments or conidia suspensions of a fungus prepared either freshly from liquid cultures of the fungus or from cryogenic storage, are directly mixed into nutrient broth. DMSO solutions of the test compound (max. 10 mg/ml) are diluted with 0.025% Tween20 by a factor of 50 and 10 μl of this solution is pipetted into a microtiter plate (96-well format). The nutrient broth containing the fungal spores/mycelia fragments is then added to give an end concentration of the tested compound. The test plates are incubated in the dark at 24° C. and 96% relative humidity. The inhibition of fungal growth is determined photometrically after 2 to 7 days, depending on the pathosystem, and percent antifungal activity relative to the untreated check is calculated. Conidia of the fungus from cryogenic storage are directly mixed into nutrient broth (PDB potato dextrose broth). After placing a (DMSO) solution of test compound into a microtiter plate (96-well format), the nutrient broth containing the fungal spores is added. The test plates are incubated at 24° C. and the inhibition of growth is measured photometrically 3-4 days after application.

[2] = system: Puccinia recondita f. sp. tritici; assay: Puccinia recondita f. sp. tritici / wheat / leaf disc preventative (brown rust); assay type: in vivo; settings: foliar, wheat leaf segments cv. Kanzler, inoculated 1 day after application, assessed 7-9 days after application, read-out: control of Puccinia recondita f. sp. tritici compared to untreated control
Method: Leaf disks or leaf segments of various plant species are cut from plants grown in a greenhouse. The cut leaf disks or segments are placed in multiwell plates (24-well format) onto water agar. The leaf disks are sprayed with a test solution before (preventative) or after (curative) inoculation. Compounds to be tested are prepared as DMSO solutions (max. 10 mg/ml) which are diluted to the appropriate concentration with 0.025% Tween20 just before spraying. The inoculated leaf disks or segments are incubated under defined conditions (temperature, relative humidity, light, etc.) according to the respective test system. A single evaluation of disease level is carried out 3 to 14 days after inoculation, depending on the pathosystem. Percent disease control relative to the untreated check leaf disks or segments is then calculated. Wheat leaf segments cv. Kanzler are placed on agar in multiwell plates (24-well format) and sprayed with the formulated test compound diluted in water. The leaf disks are inoculated with a spore suspension of the fungus 1 day after application. The inoculated leaf segments are incubated at 19° C. and 75% rh under a light regime of 12 h light/12 h darkness in a climate cabinet and the activity of a compound is assessed as percent disease control compared to untreated when an appropriate level of disease damage appears in untreated check leaf segments (7-9 days after application).

[3] = system: Puccinia recondita f. sp. tritici; assay: Puccinia recondita f. sp. tritici / wheat / leaf disc curative (brown rust); assay type: in vivo; settings: foliar, wheat leaf segments cv. Kanzler, applied 1 day after inoculation, assessed 6-8 days after application, read-out: control of Puccinia recondita f. sp. tritici compared to untreated control
Method: Leaf disks or leaf segments of various plant species are cut from plants grown in a greenhouse. The cut leaf disks or segments are placed in multiwell plates (24-well format) onto water agar. The leaf disks are sprayed with a test solution before (preventative) or after (curative) inoculation. Compounds to be tested are prepared as DMSO solutions (max. 10 mg/ml) which are diluted to the appropriate concentration with 0.025% Tween20 just before spraying. The inoculated leaf disks or segments are incubated under defined conditions (temperature, relative humidity, light, etc.) according to the respective test system. A single evaluation of disease level is carried out 3 to 14 days after inoculation, depending on the pathosystem. Percent disease control relative to the untreated check leaf disks or segments is then calculated. Wheat leaf segments cv. Kanzler are placed on agar in multiwell plates (24-well format). The leaf segments are inoculated with a spore suspension of the fungus. Plates are stored in darkness at 19° C. and 75% rh. The formulated test compound diluted in water is applied 1 day after inoculation. The leaf segments are incubated at 19° C. and 75% rh under a light regime of 12 h light/12 h darkness in a climate cabinet and the activity of a compound is assessed as percent disease control compared to untreated when an appropriate level of disease damage appears in untreated check leaf segments (6-8 days after application).

Phakopsora pachyrhizi = Phakopsora pachyrhizi / soybean / leaf disc preventative (Asian soybean rust); assay type: in vivo; settings: foliar, soybean leaf disks, inoculated one day after application, assessed 12-14 days after application, read-out: control of Phakopsora pachyrhizi compared to untreated control
Method: Leaf disks or leaf segments of various plant species are cut from plants grown in a greenhouse. The cut leaf disks or segments are placed in multiwell plates (24-well format) onto water agar. The leaf disks are sprayed with a test solution before (preventative) or after (curative) inoculation. Compounds to be tested are prepared as DMSO solutions (max. 10 mg/ml) which are diluted to the appropriate concentration with 0.025% Tween20 just before spraying. The inoculated leaf disks or segments are incubated under defined conditions (temperature, relative humidity, light, etc.) according to the respective test system. A single evaluation of disease level is carried out 3 to 14 days after inoculation, depending on the pathosystem. Percent disease control relative to the untreated check leaf disks or segments is then calculated. Soybean leaf disks are placed on water agar in multiwell plates (24-well format) and sprayed with the formulated test compound diluted in water. One day after application leaf discs are inoculated by spraying a spore suspension on the lower leaf surface. After an incubation period in a climate cabinet of 24-36 hours in darkness at 20° C. and 75% rh leaf disc are kept at 20° C. with 12 h light/12 h darkness and 75% rh. The activity of a compound is assessed as percent disease control compared to untreated when an appropriate level of disease damage appears in untreated check leaf disks (12-14 days after application).

Uromyces viciae-fabae = Uromyces viciae-fabae / field bean / leaf disc preventative (faba-bean rust); assay type: in vivo; settings: foliar, 288 h, 100 ppm in the applied formulation, field bean leaf discs, inoculated two hours after application, 12 days after application, read-out: disease control compared to untreated control leaf discs
Method: Leaf disks or leaf segments of various plant species are cut from plants grown in a greenhouse. The cut leaf disks or segments are placed in multiwell plates (24-well format) onto water agar. The leaf disks are sprayed with a test solution before (preventative) or after (curative) inoculation. Compounds to be tested are prepared as DMSO solutions (max. 10 mg/ml) which are diluted to the appropriate concentration with 0.025% Tween20 just before spraying. The inoculated leaf disks or segments are incubated under defined conditions (temperature, relative humidity, light, etc.) according to the respective test system. A single evaluation of disease level is carried out 3 to 14 days after inoculation, depending on the pathosystem. Percent disease control relative to the untreated check leaf disks or segments is then calculated. Field bean leaf discs are placed on water agar in multiwell plates (96-well format) and 10 μl of the formulated test compound diluted in acetone and a spreader pipetted onto the leaf disc. Two hours after application leaf discs are inoculated by spraying a spore suspension on the lower leaf surface. The leaf discs are incubated in a climate cabinet at 22° C. with 18 hour day and 70% relative humidity. The activity of a compound is assessed as percent disease control compared to untreated when an appropriate level of disease damage appears in untreated check leaf disks (12 days after application).

Row | Structure (SMILES) | melting point | inhibition at 20 ppm [1] | pest or weed control at 200 ppm [2] | pest or weed control at 200 ppm [3] | pest or weed control at 200 ppm (Phakopsora pachyrhizi) | pest or weed control at 100 ppm (Uromyces viciae-fabae)
1 | CCONC(=O)c1ccc(-c2noc(C(F)(F)F)n2)c(F)c1 [Compound 1.13, N-ethoxy-3-fluoro-4-[5-(trifluoromethyl)-1,2,4-oxadiazol-3-yl]benzamide] | 139 to 144 °C | ≥ 80% | ≥ 80% | – | – | –
2 | O=C(NOCC(F)F)c1ccc(-c2noc(C(F)(F)F)n2)c(F)c1 [Compound 1.14, N-(2,2-difluoroethoxy)-3-fluoro-4-[5-(trifluoromethyl)-1,2,4-oxadiazol-3-yl]benzamide] | 138 to 140 °C | ≥ 80% | ≥ 80% | ≥ 80% | – | –
3 | C=CCONC(=O)c1ccc(-c2noc(C(F)(F)F)n2)c(F)c1 [Compound 1.15, N-allyloxy-3-fluoro-4-[5-(trifluoromethyl)-1,2,4-oxadiazol-3-yl]benzamide] | 132 to 136 °C | ≥ 80% | ≥ 80% | ≥ 80% | – | –
4 | CONC(=O)Cc1ccc(-c2noc(C(F)(F)F)n2)cc1F [Compound 1.20, 2-[2-fluoro-4-[5-(trifluoromethyl)-1,2,4-oxadiazol-3-yl]phenyl]-N-methoxy-acetamide] | 150 to 152 °C | ≥ 80% | ≥ 80% | ≥ 80% | – | –
5 | CCONC(=O)Cc1ccc(-c2noc(C(F)(F)F)n2)cc1F [Compound 1.21, N-ethoxy-2-[2-fluoro-4-[5-(trifluoromethyl)-1,2,4-oxadiazol-3-yl]phenyl]acetamide] | 81 to 83 °C | ≥ 80% | ≥ 80% | ≥ 80% | – | –
6 | O=C(Cc1ccc(-c2noc(C(F)(F)F)n2)cc1F)NOCC(F)F [Compound 1.23, N-(2,2-difluoroethoxy)-2-[2-fluoro-4-[5-(trifluoromethyl)-1,2,4-oxadiazol-3-yl]phenyl]acetamide] | 114 to 116 °C | ≥ 80% | ≥ 80% | ≥ 80% | – | –
7 | COC(=O)CN(OC)C(=O)c1ccc(-c2noc(C(F)(F)F)n2)cc1 [Compound 2.8, methyl 2-[methoxy-[4-[5-(trifluoromethyl)-1,2,4-oxadiazol-3-yl]benzoyl]amino]acetate] | – | ≥ 80% | ≥ 80% | ≥ 80% | ≥ 80% | ≥ 80%
8 | C=CCN(OC)C(=O)c1ccc(-c2noc(C(F)(F)F)n2)cc1 [Compound 2.10, N-allyl-N-methoxy-4-[5-(trifluoromethyl)-1,2,4-oxadiazol-3-yl]benzamide] | – | ≥ 80% | ≥ 80% | ≥ 80% | ≥ 80% | ≥ 80%

Further lines, with some results ahead:

Row | melting point | Structure (SMILES) | inhibition at 20 ppm [1] | pest or weed control at 200 ppm [2] | pest or weed control at 200 ppm [3] | pest or weed control at 200 ppm (Phakopsora pachyrhizi) | pest or weed control at 100 ppm (Uromyces viciae-fabae)
9 | 153 to 158 °C | C=CCONC(=O)Cc1ccc(-c2noc(C(F)(F)F)n2)cc1 [Compound 2.14, N-allyloxy-2-[4-[5-(trifluoromethyl)-1,2,4-oxadiazol-3-yl]phenyl]acetamide] | ≥ 80% | ≥ 80% | – | – | –
10 | 135 to 138 °C | O=C(Cc1ccc(-c2noc(C(F)(F)F)n2)cc1)NOCc1ccccc1 [Compound 2.15, N-benzyloxy-2-[4-[5-(trifluoromethyl)-1,2,4-oxadiazol-3-yl]phenyl]acetamide] | ≥ 80% | ≥ 80% | – | – | –
11 | 134 to 137 °C | O=C(NOCC(F)F)c1ccc(-c2noc(C(F)(F)F)n2)cc1 [Compound 2.18, N-(2,2-difluoroethoxy)-4-[5-(trifluoromethyl)-1,2,4-oxadiazol-3-yl]benzamide] | ≥ 80% | ≥ 80% | ≥ 80% | – | –
